# Positions of bridges follow the written chain, without caps; N, C: chain ends. Non-standard residues stand in square brackets, D forms with d. Residues, ends and D or L forms follow the SMILES beside them. Phe(4-NH2) = Nc1ccc(C[C@H](N)C(=O)O)cc1; Dab = NCC[C@H](N)C(=O)O
# Tests used:
# [1] = target: T1, human SRIF receptor type 2 (Homo sapiens, UniProt P30874); experiment: Radioligand binding assay, CHO-K1 membranes, 125I-MK-678; conditions: CHO-K1 cell membranes
# T1 construct: expressed in transfected cells; host or cells: CHO-K1 cells (membranes)
# Method: (§1) For this study, cell membranes were obtained from homogenates of CHO-K1 cells (Chinese hamster ovary cells) ectopically expressing one of the five known somatostatin receptor subtypes (the cells were transfected with cDNA encoding a somatostatin receptor subtype, according to standard methods (see, e.g., Ausubel et al., Current Protocols in Molecular Biology, John Wiley & Sons, New York, N.Y., 1994)). […] The final assay volume was 0.3 ml. Incubations were terminated by rapid filtration through GF/C filters pre-soaked in 0.3% polyethylenimine using a 2 Brandel rapid filtration module (48 wells each). Each tube and filter was then washed 3 times with 5 ml aliquots of cold buffer.
# [2] = target: T2, human SRIF receptor type 1 (Homo sapiens, UniProt P30872); experiment: Radioligand binding assay, CHO-K1 membranes, 125I-Tyr11-SRIF; conditions: CHO-K1 cell membranes, 0.05 nM 125I-Tyr11-SRIF
# T2 construct: expressed in transfected cells; host or cells: CHO-K1 cells (membranes)
# Method: as §1
# [3] = target: T3, human SRIF receptor type 5 (Homo sapiens, UniProt P35346); experiment: as above; conditions: CHO-K1 cell membranes, 0.05 nM 125I-Tyr11-SRIF
# T3 construct: expressed in transfected cells; host or cells: CHO-K1 cells (membranes)
# Method: as §1
# [4] = target: T4, human SRIF receptor type 3 (Homo sapiens, UniProt P32745); experiment: as above; conditions: CHO-K1 cell membranes, 0.05 nM 125I-Tyr11-SRIF
# T4 construct: expressed in transfected cells; host or cells: CHO-K1 cells (membranes)
# Method: as §1
# [5] = target: T5, human SRIF receptor type 4 (Homo sapiens, UniProt P31391); experiment: as above; conditions: CHO-K1 cell membranes, 0.05 nM 125I-Tyr11-SRIF
# T5 construct: expressed in transfected cells; host or cells: CHO-K1 cells (membranes)
# Method: as §1
# T2 sequence (P30872 whole entry): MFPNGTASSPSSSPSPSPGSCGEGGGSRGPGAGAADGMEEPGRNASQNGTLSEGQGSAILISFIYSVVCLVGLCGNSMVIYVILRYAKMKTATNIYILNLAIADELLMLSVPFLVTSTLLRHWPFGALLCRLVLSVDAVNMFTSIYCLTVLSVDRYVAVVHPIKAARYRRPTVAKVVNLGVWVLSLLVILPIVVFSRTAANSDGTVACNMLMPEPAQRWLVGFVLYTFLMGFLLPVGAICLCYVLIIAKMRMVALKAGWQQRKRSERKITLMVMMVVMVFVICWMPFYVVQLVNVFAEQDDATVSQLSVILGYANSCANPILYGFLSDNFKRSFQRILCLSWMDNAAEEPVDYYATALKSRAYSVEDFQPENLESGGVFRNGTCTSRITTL
# T1 sequence (P30874 whole entry): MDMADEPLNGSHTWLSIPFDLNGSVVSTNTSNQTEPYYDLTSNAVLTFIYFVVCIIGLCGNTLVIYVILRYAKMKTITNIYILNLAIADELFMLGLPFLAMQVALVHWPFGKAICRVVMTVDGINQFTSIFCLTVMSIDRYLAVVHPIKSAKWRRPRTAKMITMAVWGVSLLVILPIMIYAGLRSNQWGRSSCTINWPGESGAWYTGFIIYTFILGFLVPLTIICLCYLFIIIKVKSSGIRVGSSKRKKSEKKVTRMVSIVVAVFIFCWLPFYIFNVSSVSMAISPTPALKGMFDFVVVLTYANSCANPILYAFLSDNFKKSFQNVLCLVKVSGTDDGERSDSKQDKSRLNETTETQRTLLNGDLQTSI
# T3 sequence (P35346 whole entry): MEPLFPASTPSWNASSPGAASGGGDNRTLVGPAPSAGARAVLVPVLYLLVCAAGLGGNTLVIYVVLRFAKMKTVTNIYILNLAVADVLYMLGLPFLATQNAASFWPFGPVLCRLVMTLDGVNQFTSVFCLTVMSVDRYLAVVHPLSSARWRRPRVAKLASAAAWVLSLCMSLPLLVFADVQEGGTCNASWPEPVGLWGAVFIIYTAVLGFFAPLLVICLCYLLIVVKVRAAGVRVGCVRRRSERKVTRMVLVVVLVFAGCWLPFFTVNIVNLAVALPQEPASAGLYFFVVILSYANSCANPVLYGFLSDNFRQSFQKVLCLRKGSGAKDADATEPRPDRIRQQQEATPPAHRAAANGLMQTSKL
# T5 sequence (P31391 whole entry): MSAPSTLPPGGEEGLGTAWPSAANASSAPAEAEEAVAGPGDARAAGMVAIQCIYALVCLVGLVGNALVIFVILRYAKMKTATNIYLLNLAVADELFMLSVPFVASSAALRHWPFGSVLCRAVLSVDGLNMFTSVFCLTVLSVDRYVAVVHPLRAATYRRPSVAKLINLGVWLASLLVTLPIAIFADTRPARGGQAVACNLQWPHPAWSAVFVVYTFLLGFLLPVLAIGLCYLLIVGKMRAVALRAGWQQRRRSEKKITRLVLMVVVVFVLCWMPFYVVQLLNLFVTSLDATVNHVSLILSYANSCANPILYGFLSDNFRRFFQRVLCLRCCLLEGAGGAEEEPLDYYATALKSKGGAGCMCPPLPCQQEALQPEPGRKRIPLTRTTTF
# T4 sequence (P32745 whole entry): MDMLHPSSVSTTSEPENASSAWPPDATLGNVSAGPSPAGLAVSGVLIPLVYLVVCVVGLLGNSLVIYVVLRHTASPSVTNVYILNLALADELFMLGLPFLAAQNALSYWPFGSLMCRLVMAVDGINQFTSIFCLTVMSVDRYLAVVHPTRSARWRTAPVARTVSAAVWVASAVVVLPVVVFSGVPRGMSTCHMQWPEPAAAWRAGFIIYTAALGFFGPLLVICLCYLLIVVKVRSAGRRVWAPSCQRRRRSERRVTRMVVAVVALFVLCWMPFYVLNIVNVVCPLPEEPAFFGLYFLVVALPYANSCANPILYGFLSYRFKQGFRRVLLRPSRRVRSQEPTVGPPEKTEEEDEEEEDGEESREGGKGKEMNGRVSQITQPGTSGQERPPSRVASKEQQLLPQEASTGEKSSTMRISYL
SMILES,Kd [1] [nM],Kd [2] [nM],Kd [3] [nM],Kd [4] [nM],Kd [5] [nM]
"C[C@@H](O)[C@H](NC(=O)[C@@H]1CSSC[C@H](NC(=O)[C@H](CCCCN)NC(=O)[C@H](Cc2ccc(O)cc2)NC(=O)[C@H](CCCCN)NC(=O)[C@H](Cc2ccc(O)cc2)NC(=O)[C@H](N)CCCCN)C(=O)N[C@@H](Cc2ccccc2)C(=O)N[C@H](Cc2c[nH]c3ccccc23)C(=O)N[C@@H](CCCCN)C(=O)N[C@@H]([C@@H](C)O)C(=O)N1)C(N)=O [JF-05-59, D-Lys-Tyr-Lys-Tyr-Lys-c[Cys-Phe-D-Trp-Lys-Thr-Cys]-Thr-NH2] (H-[dK]YKYKCF[dW]KTCT-NH2; disulfide 6-11)",0.36,4.1,13.4,6.4,515
"C[C@@H](O)[C@H](NC(=O)[C@@H]1CSSC[C@H](NC(=O)[C@H](CCCNC(=N)N)NC(=O)[C@H](Cc2ccc(O)cc2)NC(=O)[C@H](CCCNC(=N)N)NC(=O)[C@H](Cc2ccc(O)cc2)NC(=O)[C@H](N)CCCNC(=N)N)C(=O)N[C@@H](Cc2ccccc2)C(=O)N[C@H](Cc2c[nH]c3ccccc23)C(=O)N[C@@H](CCCCN)C(=O)N[C@@H]([C@@H](C)O)C(=O)N1)C(N)=O [JF-05-81, D-Arg-Tyr-Arg-Tyr-Arg-c[Cys-Phe-D-Trp-Lys-Thr-Cys]-Thr-NH2] (H-[dR]YRYRCF[dW]KTCT-NH2; disulfide 6-11)",0.28,12.1,3.3,14.6,> 1000
"C[C@@H](O)[C@H](NC(=O)[C@@H]1CSSC[C@H](NC(=O)[C@H](CCCCN)NC(=O)[C@H](Cc2ccc(O)cc2)NC(=O)[C@@H](CCCCN)NC(=O)[C@@H](Cc2ccc(O)cc2)NC(=O)[C@H](CCCCN)NC(=O)[C@H](Cc2ccc(O)cc2)NC(=O)[C@H](N)CCCCN)C(=O)N[C@@H](Cc2ccccc2)C(=O)N[C@H](Cc2c[nH]c3ccccc23)C(=O)N[C@@H](CCCCN)C(=O)N[C@@H]([C@@H](C)O)C(=O)N1)C(N)=O [JF-05-85, D-Lys-Tyr-Lys-D-Tyr-D-Lys-Tyr-Lys-c[Cys-Phe-D-Trp-Lys-Thr-Cys]-Thr-NH2] (H-[dK]YK[dY][dK]YKCF[dW]KTCT-NH2; disulfide 8-13)",0.38,16.9,17.3,15.1,369
"C[C@@H](O)[C@H](NC(=O)[C@@H]1CSSC[C@H](NC(=O)[C@H](CCCCN)NC(=O)[C@H](Cc2ccc(N)cc2)NC(=O)[C@H](CCCCN)NC(=O)[C@H](Cc2ccc(N)cc2)NC(=O)[C@H](N)CCCCN)C(=O)N[C@@H](Cc2ccccc2)C(=O)N[C@H](Cc2c[nH]c3ccccc23)C(=O)N[C@@H](CCCCN)C(=O)N[C@@H]([C@@H](C)O)C(=O)N1)C(N)=O [JF-06-31, D-Lys-Pap-Lys-Pap-Lys-c[Cys-Phe-D-Trp-Lys-Thr-Cys]-Thr-NH2] (H-[dK][Phe(4-NH2)]K[Phe(4-NH2)]KCF[dW]KTCT-NH2; disulfide 6-11)",0.09,1.5,3,20.8,> 1000
"C[C@@H](O)[C@H](NC(=O)[C@@H]1CSSC[C@H](NC(=O)[C@@H](CCCCN)NC(=O)[C@@H](Cc2ccc(O)cc2)NC(=O)[C@@H](CCCCN)NC(=O)[C@@H](Cc2ccc(O)cc2)NC(=O)[C@H](N)CCCCN)C(=O)N[C@@H](Cc2ccccc2)C(=O)N[C@H](Cc2c[nH]c3ccccc23)C(=O)N[C@@H](CCCCN)C(=O)N[C@@H]([C@@H](C)O)C(=O)N1)C(N)=O [JF-06-44, D-Lys-D-Tyr-D-Lys-D-Tyr-D-Lys-c[Cys-Phe-D-Trp-Lys-Thr-Cys]-Thr-NH2] (H-[dK][dY][dK][dY][dK]CF[dW]KTCT-NH2; disulfide 6-11)",0.87,3.8,17,0.91,–
"C[C@@H](O)[C@H](NC(=O)[C@@H]1CSSC[C@H](NC(=O)[C@H](CCN)NC(=O)[C@H](Cc2ccc(O)cc2)NC(=O)[C@H](CCN)NC(=O)[C@H](Cc2ccc(O)cc2)NC(=O)[C@@H](N)CCN)C(=O)N[C@@H](Cc2ccccc2)C(=O)N[C@H](Cc2c[nH]c3ccccc23)C(=O)N[C@@H](CCCCN)C(=O)N[C@@H]([C@@H](C)O)C(=O)N1)C(N)=O [JF-06-45, Dab-Tyr-Dab-Tyr-Dab-c[Cys-Phe-D-Trp-Lys-Thr-Cys]-Thr-NH2] (H-[Dab]Y[Dab]Y[Dab]CF[dW]KTCT-NH2; disulfide 6-11)",1.37,6.2,115,22.7,> 1000
"C[C@@H](O)[C@H](NC(=O)[C@@H]1CSSC[C@H](NC(=O)[C@@H](CCCCN)NC(=O)[C@@H](Cc2ccc(O)cc2)NC(=O)[C@H](N)CCCCN)C(=O)N[C@@H](Cc2ccccc2)C(=O)N[C@H](Cc2c[nH]c3ccccc23)C(=O)N[C@@H](CCCCN)C(=O)N[C@@H]([C@@H](C)O)C(=O)N1)C(N)=O [JF-06-50, D-Lys-D-Tyr-D-Lys-c[Cys-Phe-D-Trp-Lys-Thr-Cys]-Thr-NH2] (H-[dK][dY][dK]CF[dW]KTCT-NH2; disulfide 4-9)",1.96,20.9,20,4.87,> 1000

# Source: patent publication US6465613B1, “Hydrophilic somatostatin analogs” (Tulane University, priority 1998, dated 2002)
